The source of these data is patent US10703729B2, “Pyrazine derivative, and preparation method and medical use thereof” (GUANGZHOU MAGPIE PHARMACEUTICALS CO., LTD., priority 2015, dated 2020).

For data set [1] the following is noted: Wang Tingfang, Journal of Pharmaceutical Practice 2011; cited from earlier work.
The subject of data set [2] is SD rat myocardial infarction model. As to the kind of experiment: SD rat myocardial infarction model. Type of data set: in vivo. Conditions: 20 mg/kg via tail vein after modeling, read at 24 hours; FIG. 19. How it is done:
A male SD rat was anesthetized with 2.5% isoflurane and fixed. Tracheotomy was performed, and the rat was connected to a ventilator and was cut at the position 0.5 cm on the left side of the sternal along the 2nd intercostal space and the 4th intercostal space 4. The subcutaneous tissue and muscle were bluntly dissected, and the chest was opened at the 4th intercostal space with forceps to expose the chest. The pericardium was carefully opened. The anterior descending branch of the left coronary artery was ligated with non-invasive suture needle No. 8 at the position of 2 to 3 mm from the lower edge of the left atrial appendage. The elevation of the ST segment of lead II ECG after the ligation was taken as an indication of a successful model. Throughout the experiment process, the rat was placed and kept warm on a 37° C. thermostatic table, and after waking up, the rat was placed into the original cage to continue feeding. After successful modeling, the rat was injected via tail vein for 15 min to give 20 mg/kg of IND-023 with a solution of 5% ethanol+5% polyethylene glycol+90% normal saline. […]

Data set [3] concerns H9c2 cells. As to the kind of experiment: Protective effect on t-BHP-induced H9c2 cell injury (MTT). Conditions: pre-protected 1 hour, t-BHP 150 μM 12 hours, 490 nm, FIG. 18. Type of data set: cell-based. The procedure: H9c2 cells were seeded in a 96-well plate in a density of 1×10^4 cells/well, and cultured in a DMEM complete medium for 24 hours. IND-023 was pre-protected for 1 hour, and then diluted t-BHP 150 μM with serum-free high glucose DMEM and induced for 12 hours. MTT (5 mg/mL) was added and cultured for 4 hours. Then, the medium was aspirated, and 100 μL, of DMSO was added to each well. The cells were homogenized by shaking in a shaking table and the absorbance was measured at a wavelength of 490 nm with a BioTek microplate reader to calculate the cell viability.

Data set [4] concerns H9c2 cells. As to the kind of experiment: Protective effect on A/R-induced H9c2 cell damage (MTT). Conditions: hypoxia 12 hours, reoxygenation 4 hours, 490 nm, FIG. 17. The class given is cell-based. The procedure:
H9c2 cells were seeded in a 96-well plate and incubated at 37° C. in a 5% CO2 incubator for 24 hours, and then hypoxia was indicated. IND-023 of the drug group was diluted with KRB buffer as an anoxic solution into desired concentrations. The model group, after added only KRB solution with 50 μL in each well, was placed into the hypoxic box to be incubated for 12 hours, whereas, the blank group, after the initial medium was replaced with serum-free high glucose DMEM, was placed into a normal incubator. After the end of hypoxia, the medium of the model group was changed to serum-free high glucose DMEM. The drug group was diluted with high-glucose DMEM to corresponding concentrations with 100 μL each well, and was placed in a normal incubator and cultured for 4 hours. After the end of reoxygenation, the existing medium was removed and MTT was added. After 4 hours, the OD value was measured at 490 nm to calculate cell viability.

The test system of data set [5] is H9c2 cells. As to the kind of experiment: Protective effect on IAA-induced H9c2 cell damage (MTT). Type of data set: cell-based. Conditions: pre-treatment 1 hour, IAA 50 μM 4 hours, 490 nm, FIG. 16. The procedure:
H9c2 cells were seeded in a 96-well plate and incubated for 24 hours at 37° C. in a 5% CO2 incubator. Then, 100 μL it of IND-023 in different concentrations was added and subjected to prepreparation for 1 hour. After induction with IAA (50 μM) for 4 hours, MTT was added, and the absorbance was measured at 490 nm with a microplate reader.

Consider `O=C(O)[C@H](O)Cc1ccc(O)c(O)c1` [Danshensu, Tanshinol], for which, in data set [1], the bioavailability was 9.53-14.18%.

As for `Cc1nc(COC(=O)C(O)Cc2ccc(O)c(O)c2)c(C)nc1COC(=O)C(O)Cc1ccc(O)c(O)c1` (centres unmarked) [IND-023], in data set [2], the “protective effect on SD rat myocardial infarction model” value is “protective effect”. Moreover, in the data set with H9c2 cells [3], the “protective effect on t-BHP-induced H9c2 cell injury” value is “significant protective effect”. Moreover, in the data set on H9c2 cells [4], the “protective effect on A/R-induced H9c2 cell injury” value is listed as “significant protective effect”. Further, the “protective effect on IAA-induced H9c2 cell injury” value in the data set with H9c2 cells [5] was “significant protective effect”.
